In paper PMC11401861, “Assessment of the in vitro anti-diabetic activity with molecular dynamic simulations of limonoids isolated from Adalia lemon peels” (Scientific Reports, 2024):
≈ marks a conversion by molar mass, not a printed value.

Assays:
[1] = system: α-glucosidase; assay: α-Glucosidase enzyme inhibition assay; format: biochemical
Protocol: (§1) All in vitro biological activities of the limonoids-rich extract and the isolated compounds were assayed in triplicate at three different concentrations (50, 100, and 200 µg/mL).
(§2) The IC50 of each tested sample was determined by plotting a curve using a series of sample concentrations against the percent of enzyme inhibition.

[2] = system: α-amylase; assay: Native electrophoretic α-amylase isoenzyme pattern (PAGE); format: biochemical; settings: standard enzyme treated with 100 µg/mL
Protocol: (§3) The relative mobility (Rf), band quantity (Qty) and band percent (B%) of the electrophoretically detected isoenzyme types on the PAGE plate were determined using the Quantity One software program (version 4.6.2). The equation proposed by Nei and Li[39] was used to calculate the percentages of similarity index (SI%) and physiological difference (Diff%).

[3] = system: α-glucosidase; assay: SDS-PAGE electrophoretic α-glucosidase pattern; format: biochemical; settings: 100 µg/mL
Protocol: as §3

[4] = system: α-amylase; assay: α-Amylase enzyme inhibition assay; format: biochemical
Protocol: as §1, §2

[5] = ABTS radical scavenging assay
Protocol: as §1
(§4) The ABTS scavenging capacities of the samples were compared with that of ascorbic acid. The percent inhibition of the ABTS radical was calculated. The IC50 of each tested sample was determined by plotting a curve using a series of sample concentrations against the percent of ABTS inhibition.

[6] = DPPH radical scavenging activity
Protocol: as §1
The 1,1-Diphenyl-2-picryl-hydrazyl (DPPH) radical scavenging activity was evaluated using the method described by Rahman et al.[32]. Ascorbic acid was used as a positive control at the same concentrations. The inhibition percentage of the DPPH free radical was calculated. The median inhibitory concentration (IC50) of each tested sample was determined by plotting a curve using a series of sample concentrations against the percentage of DPPH inhibition.

[7] = Nitric oxide (NO) radical scavenging activity (Griess Illosvory reagent)
Protocol: as §1
as §4, with “The nitric oxide (NO) radical scavenging activity was estimated by the reaction with Griess Illosvory reagent based on the method proposed by Chakraborthy[34]. The NO” for “The ABTS”, “the NO” for “the ABTS”, “of NO” for “of ABTS”

[8] = Iron reducing power (IRP), method of Oyaizu
[9] = Total antioxidant capacity (TAC), method of Prieto et al.
Protocol: as §1
The method proposed by Prieto et al.[30] was used to determine the total antioxidant capacity (TAC) expressed as mg […] equivalent per gram weight, using ascorbic acid at the same concentrations as a standard.

| Compound | α-Glucosidase Inhibition (%) ([1]; sample concentration 50 µg/mL) | α-Glucosidase Inhibition (%) ([1]; sample concentration 100 µg/mL) | α-Glucosidase Inhibition (%) ([1]; sample concentration 200 µg/mL) | Change in electrophoretic α-amylase isoenzyme pattern [2] | α-Amylase Inhibition (%) ([4]; sample concentration 50 µg/mL) | α-Amylase Inhibition (%) ([4]; sample concentration 100 µg/mL) | α-Amylase Inhibition (%) ([4]; sample concentration 200 µg/mL) | ABTS Inhibition (%) ([5]; sample concentration 50 µg/mL) | ABTS Inhibition (%) ([5]; sample concentration 100 µg/mL) | ABTS Inhibition (%) ([5]; sample concentration 200 µg/mL) | DPPH Inhibition (%) ([6]; sample concentration 50 µg/mL) | DPPH Inhibition (%) ([6]; sample concentration 100 µg/mL) | DPPH Inhibition (%) ([6]; sample concentration 200 µg/mL) | NO Inhibition (%) ([7]; sample concentration 50 µg/mL) | NO Inhibition (%) ([7]; sample concentration 100 µg/mL) | NO Inhibition (%) ([7]; sample concentration 200 µg/mL) | IRP ([8]; sample concentration 50 µg/mL) [µg/mL] | IRP ([8]; sample concentration 100 µg/mL) [µg/mL] | IRP ([8]; sample concentration 200 µg/mL) [µg/mL] | TAC ([9]; sample concentration 50 µg/mL) [mg gallic acid/g] | also measured |
| --- | --- | --- | --- | --- | --- | --- | --- | --- | --- | --- | --- | --- | --- | --- | --- | --- | --- | --- | --- | --- | --- |
| C[C@H]1O[C@H](O[C@H]2[C@H](O)[C@@H](O)[C@@H](O[C@H]3[C@H](O)[C@@H](O)C(O)O[C@@H]3CO)O[C@@H]2CO)[C@H](O)[C@@H](O)[C@@H]1N[C@H]1C=C(CO)[C@@H](O)[C@H](O)[C@H]1O (stereo partly shown) [Acarbose, acarbose, reference compound] | 17.69 ± 0.08 | 29.73 ± 0.13 | 52.92 ± 0.23 | complete denaturation | 21.84 ± 0.08 | 37.12 ± 0.13 | 66.07 ± 0.23 | – | – | – | – | – | – | – | – | – | – | – | – | – | Change in electrophoretic α-glucosidase pattern [3]: complete denaturation |
| O=C1O[C@H]([C@@H](O)CO)C(O)=C1O [Ascorbic Acid, ascorbic acid, reference compound] | – | – | – | – | – | – | – | 24.94 ± 0.08 | 42.64 ± 0.13 | 75.90 ± 0.23 | 26.17 ± 0.07 | 45.43 ± 0.11 | 80.87 ± 0.20 | 21.02 ± 0.07 | 36.27 ± 0.11 | 64.55 ± 0.20 | 23.95 ± 0.07 | 42.64 ± 0.13 | 75.90 ± 0.23 | 30.09 ± 0.08 | IC50 against ABTS radical ([5]; Fig. 2a): 4.17 ± 0.02 µg/mL (≈ 23.7 µM); IC50 against DPPH radical ([6]; Fig. 2a): 4.74 ± 0.02 µg/mL (≈ 26.9 µM); IC50 against NO radical ([7]; Fig. 2a): 5.17 ± 0.03 µg/mL (≈ 29.4 µM); TAC ([9]; sample concentration 100 µg/mL): 53.56 ± 0.14 mg gallic acid/g; TAC ([9]; sample concentration 200 µg/mL): 95.34 ± 0.25 mg gallic acid/g |
| CC1(C)O[C@H]2CC(=O)OC[C@]23[C@H]2CC[C@@]4(C)[C@H](c5ccoc5)OC(=O)[C@H]5O[C@]54[C@]2(C)C(=O)C[C@@H]13 [Cpd1, limonin] | 1.37 ± 0.03 | 2.44 ± 0.04 | 4.34 ± 0.08 | no qualitative or quantitative variations | 4.52 ± 0.03 | 8.05 ± 0.04 | 14.32 ± 0.08 | 7.62 ± 0.03 | 13.56 ± 0.04 | 24.14 ± 0.08 | 11.10 ± 0.02 | 19.77 ± 0.04 | 35.18 ± 0.07 | 5.95 ± 0.02 | 10.60 ± 0.04 | 18.87 ± 0.07 | 7.62 ± 0.03 | 13.56 ± 0.04 | 24.14 ± 0.08 | 12.77 ± 0.03 | Diff% (physiological difference) of electrophoretic α-amylase pattern from the standard enzyme [2]: 0.00%; SI% (similarity index) of electrophoretic α-amylase pattern to the standard enzyme [2]: 100.00%; Diff% (decrease in the quantity of the identified α-glucosidase band) [3]: 3.83%; Qty (band quantity) of the α-glucosidase band [3]: 17.95; TAC ([9]; sample concentration 100 µg/mL): 22.73 ± 0.04 mg gallic acid/g; TAC ([9]; sample concentration 200 µg/mL): 40.46 ± 0.08 mg gallic acid/g |
